The text below walks through data of ChEMBL document CHEMBL4622929 (Bioorg Med Chem Lett, 2020).

As a reminder, the inhibition is the drop in the measured response relative to a control, in per cent. Low values mean a weak effect, high ones a strong effect. One may read the Ki as a measure of affinity in units of concentration, obtained from inhibition or displacement.

Molecules are shown by their SMILES. Where only a bound is given, the exact number is not on record here.

Assay [1] has as its target T1, Adenosine receptor A1 (Rattus norvegicus) (UniProt P25099).
T1 sequence (whole entry): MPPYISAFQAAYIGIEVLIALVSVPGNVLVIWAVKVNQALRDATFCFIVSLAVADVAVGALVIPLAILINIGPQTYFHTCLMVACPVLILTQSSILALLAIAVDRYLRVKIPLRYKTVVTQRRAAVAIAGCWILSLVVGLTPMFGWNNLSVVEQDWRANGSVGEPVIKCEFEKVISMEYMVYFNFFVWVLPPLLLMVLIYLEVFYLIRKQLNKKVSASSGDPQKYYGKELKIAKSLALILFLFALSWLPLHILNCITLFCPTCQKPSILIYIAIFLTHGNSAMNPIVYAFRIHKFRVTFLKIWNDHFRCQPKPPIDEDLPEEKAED
Description: Displacement of [3H]DPCPX from Sprague-Dawley rat whole brain membrane A1AR at 100 uM by scintillation counting analysis relative to control. In kind it is cell membranes.

Another assay deals with Adenosine receptor A2a (Rattus norvegicus, UniProt P30543). Description: Displacement of [3H]NECA from Sprague-Dawley rat striatal membrane A2A adenosine receptor by scintillation counting analysis. In kind it is cell membranes, Striatum. For orientation: Loss of bound radioactivity is the signal in a displacement assay; it reports binding, not function.
Sequence of Adenosine receptor A2a (P30543 whole entry): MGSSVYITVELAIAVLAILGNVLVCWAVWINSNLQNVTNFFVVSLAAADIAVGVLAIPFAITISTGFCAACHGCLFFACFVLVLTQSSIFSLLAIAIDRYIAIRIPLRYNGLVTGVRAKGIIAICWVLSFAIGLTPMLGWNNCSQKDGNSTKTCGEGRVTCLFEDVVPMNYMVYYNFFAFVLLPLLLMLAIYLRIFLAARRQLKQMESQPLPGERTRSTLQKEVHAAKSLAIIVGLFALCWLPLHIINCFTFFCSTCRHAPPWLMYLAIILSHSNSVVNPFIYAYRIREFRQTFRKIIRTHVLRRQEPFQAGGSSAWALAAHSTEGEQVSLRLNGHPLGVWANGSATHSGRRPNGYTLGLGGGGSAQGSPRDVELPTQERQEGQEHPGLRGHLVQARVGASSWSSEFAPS
Assay [2] concerns the target T2, Adenosine receptor A1 (Rattus norvegicus, UniProt P25099).
T2 sequence (P25099 whole entry): T1 sequence (whole entry)
The assay is described as follows: Displacement of [3H]DPCPX from Sprague-Dawley rat whole brain membrane A1AR by scintillation counting analysis. In kind it is cell membranes.

Assay [3] concerns the target T2, Adenosine receptor A1. The assay is described as follows: Displacement of [3H]DPCPX from Sprague-Dawley rat whole brain membrane A1AR in presence of GTP by radioligand binding assay. In kind it is cell membranes.
Assay [4] deals with Adenosine receptor A2a (Rattus norvegicus) (UniProt P30543). The assay is described as follows: Displacement of [3H]NECA from Sprague-Dawley rat striatal membrane A2A adenosine receptor at 100 uM by scintillation counting analysis relative to control. In kind it is cell membranes. As to conditions: Striatum.
Sequence of Adenosine receptor A2a (Rattus norvegicus) (P30543 whole entry): as above
Assay [5] deals with T1, Adenosine receptor A1 (Rattus norvegicus). The assay is described as follows: Ratio of Ki for displacement of [3H]DPCPX from Sprague-Dawley rat whole brain membrane A1AR in presence of GTP to Ki for displacement of [3H]DPCPX from Sprague-Dawley rat whole brain A1AR. In kind it is cell membranes.
The species entered for a further assay is Rattus norvegicus. Description: Selectivity index, ratio of Ki for Sprague-Dawley rat striatal membrane A2 adenosine receptor to Ki for Sprague-Dawley rat whole brain A1 adenosine receptor.

In assay [1], `COc1ccc(-c2nc(O)c3ccccc3n2)cc1OC` displayed an inhibition of 67%. Besides, the Ki on Adenosine receptor A2a was 2.81 µM; at Adenosine receptor A1 [2] it was greater than 100 µM.
On to `O=c1oc(-c2ccccc2)nc2ccccc12`, for which the Ki is 6.92 µM on Adenosine receptor A1 [3], greater than 100 µM on Adenosine receptor A2a and 6.38 µM on Adenosine receptor A1 [2]. Further, the inhibition in assay [4] worked out at 49%. Besides, the Ratio Ki in assay [5] amounted to 1.09.
In the case of `O=c1oc(-c2ccc(Br)cc2)nc2ccccc12`, the values for the inhibition in assay [1] and in assay [4] were 95% and 92%, respectively. Besides, the Ki at Adenosine receptor A2a and at Adenosine receptor A1 [2] was greater than 100 µM each time.
On to `Cc1ccc(-c2nc3ccccc3c(=O)[nH]2)cc1`, for which the inhibitory constant (Ki) at Adenosine receptor A1 [3] was 2.95 µM; at Adenosine receptor A2a, greater than 100 µM; on Adenosine receptor A1 [2] it was 2.5 µM. The molecule also came in with an inhibition in assay [4] of 55%. In addition, the Ratio Ki in assay [5] came to 1.18.
Consider `O=c1[nH]c(/C=C/c2ccccc2)nc2ccccc12`, for which the inhibition was found to be 100% in assay [1] and 56% in assay [4]. The Ki at Adenosine receptor A2a and on Adenosine receptor A1 [2] was greater than 100 µM throughout.
Take `Cc1ccc(-c2nc3ccccc3c(=O)o2)cc1`: the inhibition in assay [1] came to 84%; in assay [4], 77%. In addition, the Ki at Adenosine receptor A2a and at Adenosine receptor A1 [2] was greater than 100 µM throughout.
For `O=c1oc(/C=C/c2ccccc2)nc2ccccc12`, the inhibition in assay [1] stood at 56%; in assay [4] it was 85%. Moreover, the Ki on Adenosine receptor A2a and at Adenosine receptor A1 [2] was greater than 100 µM each time.
For `O=c1[nH]c(-c2ccc(Cl)cc2)nc2ccccc12`, the inhibition in assay [1] is 54%; in assay [4], 82%. Also, the Ki on Adenosine receptor A2a and on Adenosine receptor A1 [2] was greater than 100 µM in each case.
As to `Oc1nc(-c2ccccc2)cc2ccccc12`, the inhibition in assay [1] and in assay [4] was 100% each time.
As for `O=c1[nH]c(-c2ccc(Br)cc2)nc2ccccc12`, the inhibition in assay [1] came to 98%; in assay [4] it was 84%. The Ki at Adenosine receptor A2a and on Adenosine receptor A1 [2] was greater than 100 µM in each case.
With `O=c1oc2ccccc2nc1-c1ccccc1`, the Ki at Adenosine receptor A2a is greater than 100 µM; on Adenosine receptor A1 [2], 17.3 µM. Further, in assay [4], the inhibition amounted to 91%.
On to `Oc1nc(-c2cccs2)nc2ccccc12`, for which the inhibition was determined as 39% in assay [1] and 30% in assay [4]. The inhibition constant Ki at Adenosine receptor A2a and on Adenosine receptor A1 [2] was greater than 100 µM each time.
As to `COc1ccc(-c2nc3ccccc3c(=O)o2)cc1`, the inhibition in assay [1] worked out at 54%; in assay [4], 37%. Also, the Ki on Adenosine receptor A2a and on Adenosine receptor A1 [2] was greater than 100 µM throughout.
Consider `O=c1oc(-c2cccs2)nc2ccccc12`, for which the Ki at Adenosine receptor A2a is greater than 100 µM; at Adenosine receptor A1 [2], 32.4 µM. The same molecule returned an inhibition in assay [4] of 59%.
`O=c1oc(-c2ccc(Cl)cc2)nc2ccccc12`: the results for the inhibition in assay [1] and in assay [4] were 86% and 81%, respectively. The Ki on Adenosine receptor A2a and at Adenosine receptor A1 [2] was greater than 100 µM each time.
For the molecule `O=c1oc(-c2ccc(F)cc2)nc2ccccc12`, the inhibition in assay [1] is 100%; in assay [4], 70%. Further, the Ki on Adenosine receptor A2a and at Adenosine receptor A1 [2] was greater than 100 µM throughout.
Regarding `CCOc1ccc(-c2nc3ccccc3c(=O)o2)cc1`, the inhibition in assay [1] was determined as 99%; in assay [4] it was 77%. Besides, the Ki at Adenosine receptor A2a and at Adenosine receptor A1 [2] was greater than 100 µM each time.
Consider `COc1ccc(-c2nc(O)c3ccccc3n2)cc1`, for which the inhibition in assay [1] is 44%; in assay [4] it was 79%.
Consider `O=c1[nH]c(-c2ccccc2)cc2ccccc12`, for which the Ki at Adenosine receptor A2a and on Adenosine receptor A1 [2] was greater than 100 µM each time.
Consider `O=c1[nH]c(-c2ccco2)nc2ccccc12`, for which the Ratio Ki in the assay filed under Rattus norvegicus was found to be 1.76; in assay [5], 1.23. In addition, the Ki is 5.89 µM at Adenosine receptor A1 [3], 8.11 µM at Adenosine receptor A2a and 4.62 µM on Adenosine receptor A1 [2].
As to `OC[C@H]1O[C@@H](n2cnc3c(NC4CCCC4)ncnc32)[C@H](O)[C@@H]1O` [N6-CYCLOPENTYLADENOSINE], the affinity on Adenosine receptor A2a, expressed as Ki, was 0.557 µM.
With `O=c1oc(-c2ccco2)nc2ccccc12`, the inhibition in assay [1] stood at 42%; in assay [4], 66%. Also, the Ki on Adenosine receptor A2a and at Adenosine receptor A1 [2] was greater than 100 µM each time.
For `COc1ccc(-c2nc3ccccc3c(=O)[nH]2)cc1`, the inhibition constant (Ki) at Adenosine receptor A2a and on Adenosine receptor A1 [2] was greater than 100 µM in each case.
`Oc1nc(-c2ccc(F)cc2)nc2ccccc12`: the inhibition came to 50% in assay [1] and 62% in assay [4]. The Ki at Adenosine receptor A2a and at Adenosine receptor A1 [2] was greater than 100 µM throughout.
Take `O=C1OC(c2ccccc2)Nc2ccccc21` (centres undefined): the Ki at Adenosine receptor A1 [3] was 5.72 µM; on Adenosine receptor A2a, greater than 100 µM; on Adenosine receptor A1 [2] it was 5.06 µM. Moreover, in assay [4], the inhibition was 69%. In assay [5], the Ratio Ki amounted to 1.12.
With `O=c1oc2ccccc2cc1-c1ccccc1`, the inhibition in assay [1] is 51%; in assay [4] it was 77%. For the same molecule, the Ki at Adenosine receptor A2a and at Adenosine receptor A1 [2] was greater than 100 µM throughout.
